Results as given in patent US20160346249A1 (priority 2012, published 2016).
Values joined by “and” are separate entries in the source; they are usually repeats but may differ in a detail not shown here. Equal values may be shown once.

Experiment: Single dose 300 mg / 450 mg pharmacokinetic, safety and tolerability study in healthy male and female subjects
Settings: for concentration at 3 h / concentration at 4 h / concentration at 6 h / concentration at 8 h / concentration at 10 h / concentration at 12 h / concentration at 18 h / concentration at 24 h / concentration at […] / half-life / AUC(0-t) / Cmax / Tmax / concentration at 0 h / concentration at 0.5 h / concentration at 1 h / concentration at 2 h: plasma, po; for Percent of Dose in Urine (0-24 hr) / Ratio DOV 216,298/DOV 21,947 in urine (0-24 hr): Mean (SD)
[1] = single oral 300 mg DOV 21,947 HCl IR
[2] = single oral 450 mg DOV 21,947 HCl IR

`O=C1NCC2(c3ccc(Cl)c(Cl)c3)CC12` (stereo not drawn) [EB-10101, 5-(3,4-dichloro-phenyl)-3-aza-bicyclo[3.1.0]hexan-2-one] gave a concentration at 3 h (female, human, 450 mg) of 1650 ng/mL, a concentration at 4 h (female, human, 450 mg) of 2180 ng/mL and a concentration at 6 h (female, human, 450 mg) of 2710 ng/mL. It also gave a concentration at 8 h (female, human, 450 mg) of 2990 ng/mL, a concentration at 10 h (female, human, 450 mg) of 3030 ng/mL and a concentration at 12 h (female, human, 450 mg) of 2930 ng/mL. For the same compound, the concentration at 18 h (female, human, 450 mg) was 2140 ng/mL, the concentration at 24 h (female, human, 450 mg) was 2390 ng/mL and the concentration at […] (female, human, 450 mg) was 0 ng/mL and 155 ng/mL and 539 ng/mL and 660 ng/mL. For the same compound, the half-life (female, human, 450 mg, t½ (Harmonic mean), single oral 450 mg DOV 21,947 HCl IR, N = 5) was 24.5 h, the half-life (female, human, 450 mg, t½, single oral 450 mg DOV 21,947 HCl IR, N = 5, arithmetic mean) was 41.8 h and the “exposure to lactam greater than parent drug over 24 hr” value (human, in vivo) was “approximately 70%”. For the same compound, the AUC(0-t) (male, human, 300 mg) was 29200 ng·h/mL, the Cmax (male, human, 300 mg) was 1740 ng/mL and the Tmax (male, human, 300 mg) was 6.4 h. It also gave a concentration at 0 h (male, human, 300 mg) of 0 ng/mL, a concentration at 0.5 h (male, human, 300 mg) of 62.9 ng/mL and a concentration at 1 h (male, human, 300 mg) of 404 ng/mL. It also gave a concentration at 2 h (male, human, 300 mg) of 1040 ng/mL, a concentration at 3 h (male, human, 300 mg) of 1490 ng/mL and a concentration at 4 h (male, human, 300 mg) of 1470 ng/mL. The concentration at 6 h (male, human, 300 mg) was 1520 ng/mL, the concentration at 8 h (male, human, 300 mg) was 1590 ng/mL and the concentration at 10 h (male, human, 300 mg) was 1670 ng/mL. The concentration at 12 h (male, human, 300 mg) was 1410 ng/mL, the concentration at 18 h (male, human, 300 mg) was 1100 ng/mL and the concentration at 24 h (male, human, 300 mg) was 820 ng/mL. For the same compound, the concentration at […] (male, human, 300 mg) was 3.03 ng/mL and 238 ng/mL and 629 ng/mL and 753 ng/mL, the half-life (male, human, 300 mg, t½ (Harmonic mean), single oral 300 mg DOV 21,947 HCl IR, N = 5) was 13.7 h and the half-life (male, human, 300 mg, t½, single oral 300 mg DOV 21,947 HCl IR, N = 5, arithmetic mean) was 15.3 h. For the same compound, the AUC(0-t) (male, human, 450 mg) was 46100 ng·h/mL, the Cmax (male, human, 450 mg) was 2550 ng/mL and the Tmax (male, human, 450 mg) was 9.2 h. The concentration at 0 h (male, human, 450 mg) was 0 ng/mL, the concentration at 0.5 h (male, human, 450 mg) was 107 ng/mL and the concentration at 1 h (male, human, 450 mg) was 388 ng/mL. For the same compound, the concentration at 2 h (male, human, 450 mg) was 1620 ng/mL, the concentration at 3 h (male, human, 450 mg) was 1980 ng/mL and the concentration at 4 h (male, human, 450 mg) was 2150 ng/mL. It also gave a concentration at 6 h (male, human, 450 mg) of 2320 ng/mL, a concentration at 8 h (male, human, 450 mg) of 2360 ng/mL and a concentration at 10 h (male, human, 450 mg) of 2520 ng/mL. The concentration at 12 h (male, human, 450 mg) was 2310 ng/mL, the concentration at 18 h (male, human, 450 mg) was 1880 ng/mL and the concentration at 24 h (male, human, 450 mg) was 1450 ng/mL. The concentration at […] (male, human, 450 mg) was 0 ng/mL and 214 ng/mL and 752 ng/mL and 954 ng/mL, the half-life (male, human, 450 mg, t½ (Harmonic mean), single oral 450 mg DOV 21,947 HCl IR, N = 5) was 16.6 h and the half-life (male, human, 450 mg, t½, single oral 450 mg DOV 21,947 HCl IR, N = 5, arithmetic mean) was 23.4 h. The λz (single oral 300 mg DOV 21,947 HCl IR, Female, N = 5) was 0.046^b hr^−1, the λz (single oral 300 mg DOV 21,947 HCl IR, Male, N = 5) was 0.051 h⁻¹ and the “Percent of Dose in Urine (0-24 hr)” value [1] was 0.075 (0.024) Percent of Dose. For the same compound, the “Ratio DOV 216,298/DOV 21,947 in urine (0-24 hr)” value [1] was 0.195 (0.092), the “Mean Amount in Urine” value (single oral 300 mg DOV 21,947 HCl IR, Period 0-1 hr) was 0.0 µg and the “Mean Amount in Urine” value (single oral 300 mg DOV 21,947 HCl IR, Period 1-2 hr) was 2.7 µg. For the same compound, the “Mean Amount in Urine” value (single oral 300 mg DOV 21,947 HCl IR, Period 2-4 hr) was 52.5 µg, the “Mean Amount in Urine” value (single oral 300 mg DOV 21,947 HCl IR, Period 4-8 hr) was 56.2 µg and the “Mean Amount in Urine” value (single oral 300 mg DOV 21,947 HCl IR, Period 8-12 hr) was 34.8 µg. The “Mean Amount in Urine” value (single oral 300 mg DOV 21,947 HCl IR, Period 12-24 hr) was 47.8 µg, the “Mean Amount in Urine” value (single oral 300 mg DOV 21,947 HCl IR, Total (0-24 hr)) was 194 µg and the λz (single oral 300 mg DOV 21,947 HCl IR, mean, N = 10) was 0.049^b hr^−1. For the same compound, the λz (single oral 450 mg DOV 21,947 HCl IR, Female, N = 5) was 0.028 h⁻¹, the λz (single oral 450 mg DOV 21,947 HCl IR, Male, N = 5) was 0.042 h⁻¹ and the “Percent of Dose in Urine (0-24 hr)” value [2] was 0.067 (0.035) Percent of Dose. The “Ratio DOV 216,298/DOV 21,947 in urine (0-24 hr)” value [2] was 0.256 (0.173), the “Mean Amount in Urine” value (single oral 450 mg DOV 21,947 HCl IR, Period 0-1 hr) was 0.0 µg and the “Mean Amount in Urine” value (single oral 450 mg DOV 21,947 HCl IR, Period 1-2 hr) was 2.1 µg. For the same compound, the “Mean Amount in Urine” value (single oral 450 mg DOV 21,947 HCl IR, Period 2-4 hr) was 45.2 µg, the “Mean Amount in Urine” value (single oral 450 mg DOV 21,947 HCl IR, Period 4-8 hr) was 89.3 µg and the “Mean Amount in Urine” value (single oral 450 mg DOV 21,947 HCl IR, Period 8-12 hr) was 61.2 µg. The “Mean Amount in Urine” value (single oral 450 mg DOV 21,947 HCl IR, Period 12-24 hr) was 63.5 µg, the “Mean Amount in Urine” value (single oral 450 mg DOV 21,947 HCl IR, Total (0-24 hr)) was 261 µg and the λz (single oral 450 mg DOV 21,947 HCl IR, mean, N = 10) was 0.035 h⁻¹.
